Assay results: the supplement of paper PMC11061612

Tests used:
[1] = compound: C1CN(CCC1(C(=O)N[C@@H](CCO)C2=CC=C(C=C2)Cl)N)C3=NC=NC4=C3C=CN4 [AZD5363]; settings: max 10 µM
Outline: (§1)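 Following 24 hours at 37°C and 5% CO2, cancer cell lines in 1536-well plates with 7.5 μl DMEM/F12 or RPMI and 10% FBS were dosed for 72 hours, final DMSO typically being 0.2%. CellTiter-Glo 2.0 luminescence, scaled between blank-well and DMSO-well means, gave the viability readout. Dose responses were fitted to a two-parameter logistic curve with a non-linear mixed effects model, and the single-agent IC50 was derived from this fit.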

[2] = compound: C[C@@H](Nc1cc(F)cc(F)c1)c1cc(C(=O)N(C)C)cc2c(=O)cc(N3CCOCC3)oc12 [AZD8186]; settings: max 10 µM
Outline: as §1

[3] = compound: CN(CC[C@H](CSC1=CC=CC=C1)NC2=C(C=C(C=C2)S(=O)(=O)NC(=O)C3=CC=C(C=C3)N4CCC(CC4)[C@H](C5=CC=CC=C5C6=CC=C(C=C6)Cl)O)S(=O)(=O)C(F)(F)F)CCO [AZD4320]; settings: max 1 µM
Outline: as §1

[4] = compound: COc1cc([C@@H]2c3cc4c(cc3[C@@H](O[C@@H]3O[C@@H]5CO[C@@H](C)O[C@H]5[C@H](O)[C@H]3O)[C@H]3COC(=O)[C@H]23)OCO4)cc(OC)c1O [Etoposide]; settings: max 10 µM
Outline: as §1

[5] = compound: O=c1[nH]cc(F)c(=O)[nH]1 [5-Fluorouracil]; settings: max 20 µM
Outline: as §1

[6] = compound: CC1(C)CCC(CN2CCN(c3ccc(C(=O)NS(=O)(=O)c4ccc(NCC5CCOCC5)c([N+](=O)[O-])c4)c(Oc4cnc5[nH]ccc5c4)c3)CC2)=C(c2ccc(Cl)cc2)C1 [Venetoclax]; settings: max 1 µM
Outline: as §1

[7] = compound: O=C(Nc1ccc2[nH]nc(-c3ccncc3)c2c1)[C@@H]1CCN(CC(=O)N2CCN(c3ccc(-c4ncccn4)cc3)CC2)C1; settings: max 5 µM
Outline: as §1

[8] = compound: COc1nnc2ccc(N3CCC(c4ccc(OCCN5CCN(C)C(=O)[C@H]5C)cc4)CC3)nn12 [AZD5153]; settings: max 1 µM
Outline: as §1

[9] = compound: COc1cc(Nc2ncc3c(n2)-c2ccc(Cl)cc2C(c2c(F)cccc2OC)=NC3)ccc1C(=O)O [Alisertib]; settings: max 10 µM
Outline: as §1

[10] = compound: CC(C)n1c(=O)n(C)c2cnc3cc(F)c(-c4ccc(OCCCN5CCCCC5)nc4)cc3c21 [AZD1390]; settings: max 0.3 µM
Outline: as §1

[11] = compound: CC(=O)Nc1cccc(-n2c(=O)n(C3CC3)c(=O)c3c(Nc4ccc(I)cc4F)n(C)c(=O)c(C)c32)c1 [Trametinib]; settings: max 1 µM
Outline: as §1

[12] = compound: CC(=O)O[C@H]1C(=O)[C@@]2(C)[C@H]([C@H](OC(=O)c3ccccc3)[C@]3(O)C[C@H](OC(=O)[C@H](O)[C@@H](NC(=O)c4ccccc4)c4ccccc4)C(C)=C1C3(C)C)[C@]1(OC(C)=O)CO[C@@H]1C[C@@H]2O [Paclitaxel]; settings: max 3 µM
Outline: as §1

[13] = compound: C1CC(C1)(C(=O)[O-])C(=O)[O-].N.N.[Pt+2] [Carboplatin]; settings: max 10 µM
Outline: as §1

[14] = compound: Cc1c2c(nn1C)CSCc1cc(n(C)n1)CSc1cc(c3ccccc3c1)OCCCc1c(C(=O)O)n(C)c3c-2c(Cl)ccc13 [AZD5991]; settings: max 1 µM
Outline: as §1

[15] = compound: O=C(c1cc(Cc2n[nH]c(=O)c3ccccc23)ccc1F)N1CCN(C(=O)C2CC2)CC1 [Olaparib]; settings: max 10 µM
Outline: as §1

[16] = compound: Cc1nc(-c2cn3c(n2)-c2ccc(-c4cnn(C(C)(C)C(N)=O)c4)cc2OCC3)n(C(C)C)n1 [Taselisib]; settings: max 10 µM
Outline: as §1

[17] = compound: CN(C)CCCOc1ccc(-c2ccc3ncc4c(c3c2)n(C2CCOCC2)c(=O)n4C)cn1 [AZD0156]; settings: max 3 µM
Outline: as §1

[18] = compound: Nc1ccn([C@@H]2O[C@H](CO)[C@@H](O)C2(F)F)c(=O)n1 [Gemcitabine]; settings: max 0.3 µM
Outline: as §1

[19] = compound: COc1cc2ncnc(Nc3ccc(F)c(Cl)c3)c2cc1OCCCN1CCOCC1 [Gefitinib]; settings: max 10 µM
Outline: as §1

[20] = compound: C=CCn1c(=O)c2cnc(Nc3ccc(N4CCN(C)CC4)cc3)nc2n1-c1cccc(C(C)(C)O)n1 [AZD1775]; settings: max 3 µM
Outline: as §1

[21] = compound: Cc1cc2ncnn2cc1Nc1ncc2c(n1)n(C1CCOCC1)c(=O)n2C [AZD7648]; settings: max 10 µM
Outline: as §1

[22] = compound: CCN(CCO)CCCOc1ccc2c(Nc3cc(CC(=O)Nc4cccc(F)c4)[nH]n3)ncnc2c1 [AZD2811]; settings: max 1 µM
Outline: as §1

[23] = compound: C[C@@H](c1ccc2nccn2c1)n1nnc2ncc(-c3cnn(C)c3)nc21 [Savolitinib]; settings: max 1 µM
Outline: as §1

[24] = compound: CC1=CN2[C@@H](C1)C=NC3=CC(=C(C=C3C2=O)OC)OCCCCCOC4=C(C=C5C(=C4)N=C[C@@H]6CC(=CN6C5=O)C)OC [SG3199]; settings: max 0.001 µM
Outline: as §1

[25] = compound: CC1=C(C(=CC=C1)Cl)NC(=O)C2=CN=C(S2)NC3=CC(=NC(=N3)C)N4CCN(CC4)CCO [Dasatinib]; settings: max 2 µM
Outline: as §1

[26] = compound: COc1cccc(OCCCN)c1-c1cc(Nc2cnc(C#N)cn2)n[nH]1 [Prexasertib]; settings: max 1 µM
Outline: as §1

[27] = compound: CC(=O)c1c(C)c2cnc(Nc3ccc(N4CCNCC4)cn3)nc2n(C2CCCC2)c1=O [Palbociclib]; settings: max 10 µM
Outline: as §1

[28] = compound: NC1(c2ccc(-c3nc4ccn5c(=O)[nH]nc5c4cc3-c3ccccc3)cc2)CCC1 [MK-2206]; settings: max 10 µM
Outline: as §1

[29] = compound: CCc1c2c(nc3ccc(O)cc13)-c1cc3c(c(=O)n1C2)COC(=O)[C@]3(O)CC [SN-38]; settings: max 0.3 µM
Outline: as §1

[30] = compound: COc1cccc2c1C(=O)c1c(O)c3c(c(O)c1C2=O)C[C@@](O)(C(=O)CO)C[C@@H]3O[C@H]1C[C@H](N)[C@H](O)[C@H](C)O1 [Doxorubicin]; settings: max 1 µM
Outline: as §1

[31] = compound: C[C@@H](Oc1cc(-c2cnn(C3CCNCC3)c2)cnc1N)c1c(Cl)ccc(F)c1Cl [Crizotinib]; settings: max 10 µM
Outline: as §1

[32] = compound: CS(=O)(=O)CCNCc1ccc(-c2ccc3ncnc(Nc4ccc(OCc5cccc(F)c5)c(Cl)c4)c3c2)o1 [Lapatinib]; settings: max 10 µM
Outline: as §1

[33] = compound: Cn1cnc2c(F)c(Nc3ccc(Br)cc3Cl)c(C(=O)NOCCO)cc21 [Selumetinib]; settings: max 10 µM
Outline: as §1

[34] = compound: C[C@@H]1COCCN1C2=NC(=NC(=C2)C3(CC3)[S@](=N)(=O)C)C4=C5C=CNC5=NC=C4 [AZD6738]; settings: max 10 µM
Outline: as §1

[35] = compound: N#Cc1cnc(Nc2cc(NC[C@H]3CNCCO3)c(C(F)(F)F)cn2)cn1 [SRA737]; settings: max 10 µM
Outline: as §1

Row | Cell Line | IC50, cell viability 72 h [1] [µM] | IC50, cell viability 72 h [2] [µM] | IC50, cell viability 72 h [3] [nM] | IC50, cell viability 72 h [4] [µM] | IC50, cell viability 72 h [5] [µM] | IC50, cell viability 72 h [6] [nM] | IC50, cell viability 72 h [7] [µM] | IC50, cell viability 72 h [8] [nM] | IC50, cell viability 72 h [9] [nM] | IC50, cell viability 72 h [10] [nM] | IC50, cell viability 72 h [11] [nM] | IC50, cell viability 72 h [12] [nM] | IC50, cell viability 72 h [13] [µM] | IC50, cell viability 72 h [14] [nM] | IC50, cell viability 72 h [15] [µM] | IC50, cell viability 72 h [16] [µM] | IC50, cell viability 72 h [17] [nM] | IC50, cell viability 72 h [18] [nM] | IC50, cell viability 72 h [19] [µM] | IC50, cell viability 72 h [20] [nM] | IC50, cell viability 72 h [21] [µM] | IC50, cell viability 72 h [22] [nM] | IC50, cell viability 72 h [23] [nM] | IC50, cell viability 72 h [24] [nM] | IC50, cell viability 72 h [25] [nM] | IC50, cell viability 72 h [26] [nM] | IC50, cell viability 72 h [27] [µM] | IC50, cell viability 72 h [28] [µM] | IC50, cell viability 72 h [29] [nM] | IC50, cell viability 72 h [30] [nM] | IC50, cell viability 72 h [31] [µM] | IC50, cell viability 72 h [32] [µM] | IC50, cell viability 72 h [33] [µM] | IC50, cell viability 72 h [34] [µM] | IC50, cell viability 72 h [35] [µM]
1 | BICR78 (Oral Cavity Carcinoma) | > 10 | > 10 | > 1000 | > 10 | > 20 | > 1000 | > 5 | 966 | > 10000 | > 300 | > 1000 | 49.3 | > 10 | > 1000 | > 10 | 5.01 | > 3000 | > 300 | > 10 | > 3000 | > 10 | > 1000 | > 1000 | > 1 | > 2000 | 238 | > 10 | > 10 | 28.4 | > 1000 | > 10 | > 10 | > 10 | 7.52 | > 10
2 | CAL-39 (Other Solid Carcinomas) | > 10 | 4.77 | > 1000 | 9.07 | > 20 | > 1000 | 0.581 | 287 | 420 | > 300 | 59 | 6.79 | > 10 | > 1000 | > 10 | 0.142 | > 3000 | 25.2 | 0.737 | 651 | > 10 | > 1000 | > 1000 | > 1 | 73.9 | > 1000 | > 10 | > 10 | 22.2 | > 1000 | 4.69 | 0.377 | 1.02 | > 10 | > 10
3 | CS1 (Chondrosarcoma) | > 10 | > 10 | > 1000 | > 10 | > 20 | > 1000 | > 5 | > 1000 | 4520 | > 300 | > 1000 | 114 | > 10 | > 1000 | > 10 | > 10 | > 3000 | > 300 | > 10 | 2030 | > 10 | > 1000 | > 1000 | > 1 | > 2000 | 77.2 | > 10 | > 10 | 18.6 | 641 | 9.48 | > 10 | > 10 | > 10 | > 10
4 | D-283MED (Other Solid Carcinomas) | 8.85 | 8.4 | 425 | 0.583 | 7.43 | > 1000 | > 5 | 60.8 | 547 | > 300 | > 1000 | < 3 | > 10 | > 1000 | > 10 | 3.99 | > 3000 | 3.45 | > 10 | 425 | > 10 | 450 | > 1000 | > 1 | > 2000 | 11 | > 10 | > 10 | 7.3 | 200 | 2.73 | 6.25 | > 10 | 0.302 | 0.869
5 | D-392MG (Glioblastoma) | > 10 | > 10 | > 1000 | > 10 | > 20 | > 1000 | > 5 | > 1000 | > 10000 | > 300 | > 1000 | 245 | > 10 | > 1000 | > 10 | > 10 | > 3000 | > 300 | > 10 | > 3000 | > 10 | > 1000 | > 1000 | > 1 | > 2000 | 775 | > 10 | > 10 | > 300 | > 1000 | > 10 | > 10 | > 10 | > 10 | > 10
